# Where two headings read alike, the source gives them in different places.
# How the values were obtained:
# [1] = Pharmacokinetic test, intragastric administration to Beagle dogs, plasma LC-MS/MS; format: in vivo; conditions: for Cmax / AUC(0-t) / AUC(0-inf) / Tmax / bioavailability: both sexes, dog, plasma; for Cmax / AUC(0-t) / AUC(0-inf) / Tmax: po; for Cmax / AUC(0-t) / AUC(0-inf) / Tmax / t1/2z: suspension in 0.5% CMC-Na, citrate crystal 5.52 mg/kg, compound of Formula I 4 mg/kg (equimolar as base); for AUC(0-t): 0-36 h, trapezoidal; for AUC(0-inf): extrapolated Ct/λ; for Tmax: mean ± spread; for bioavailability: beagle, oral, crystal of citrate salt versus compound of Formula I
# Description: In this study, LC-MS/MS was used to determine the plasma concentrations of drugs after the compound of Formula I and crystals of citrate salt thereof were intragastrically administered to Beagle dogs, and the effects of the crystals of citrate salt of the compound of Forumla I on the absorption behavior were observed.
# The instrumentation system included the LC-10ADvp (Shimadzu, Japan) LC system and the TSQ Quantum Access triple quadrupole tandem mass spectrometer equipped with an electrospray ionization (ESI) source and Xcalibur 2.0.7 data processing system (Thermo Scientific, USA); the operating software was DAS2.1.1; other instruments were One hundred thousandth electronic balance (Mettler Toledo); Centrifugal rotary concentrator (LABCONCO, USA); High-speed refrigerated centrifuge (Model 5430-R, Eppendorf); Refrigerator (Model BCD-281E, Electrolux); Low temperature refrigerator (Model FORMA 700 SERIES, Thermo […]), etc.
# Column: Thermo C18 LC column (size: 150 L×2.1 mm, 5 μm); column temperature: 40° C.; Mobile phase A: aqueous phase (containing 5 mM ammonium acetate and 0.1% formic acid); mobile phase B: methanol; gradient elution: 0.01 min, 20%; 0.5 min, 20%; 1.5 min, 80%; 4.5 min, 80%, 5 min, 20%, 6 min, stop (phase B). The flow rate was 0.3 mL/min. Benazeprilat was used as the internal standard for measurement.
# The measurement was carried out by LC-MS/MS. The ion source was an ESI source and detection was performed in the positive ionization mode; the spray voltage was 3.8 kV; the heated capillary temperature was 350° C.; the pressure of the sheath gas (N2) was 35 Arb; the pressure of the auxiliary gas (N2) was 15 Arb; and voltages for collision induced dissociation (CID) were 25 eV and 25 eV (internal standard), respectively. The scanning mode was selective reaction monitoring (SRM), and the ion reactions for quantitative analysis were m/z 506.3-315.2 (the compound of Formula I) and m/z 397-351 (internal standard), respectively.
# Six adult healthy beagle dogs, half male and half female, each weighing 9-11 kg, were randomly divided into two groups, and cross-administrated with the compound of Formula I and a crystal of citrate salt thereof.
# After fasted for 12 h, the dogs were intragastrically administered with the crystal of citrate salt of the compound of Formula I and with the compound of Formula I (both were formulated with 0.5% CMC-Na as a suspension) at 5.52 mg/kg and 4 mg/kg (equimolar amounts based on the base form), respectively. A blank blood sample was taken before administration; and venous blood samples, about 1.0 ml each, were taken 0.5, 1, 2, 3, 4, 6, 8, 12, 14, 24, 36 hours after administration, placed in test tubes containing heparin, and centrifuged. The plasma fractions were isolated and stored at −80° C. After the washout period (7 days), the two groups of animals were each cross-administrated with the corresponding second drug, and the concentration of compound of Formula I in plasma samples was measured. The plasma concentration-time data for each test animal were input into a computer and the relevant pharmacokinetic parameters were calculated using the pharmacokinetic professional software DAS2.1.1, wherein Cmax and Tmax were measured values. AUC(0-t) and AUC(0-∞) are the area under the plasma concentration-time curve for the period of measurement and the total area under the plasma concentration-time curve, respectively. The AUC(0-t) was estimated by the trapezoidal method from the measured plasma concentrations, and the AUC(0-∞) was calculated from the AUC(0-t) plus the remaining area in the range t→∞, which can be calculated by the following equation: AUC(t-∞)=Ct/λ
# In the above equation, Ct is the last plasma concentration measured, and λ is the elimination rate constant in the terminal portion of the plasma concentration.
# [2] = Hygroscopicity test (Chinese Pharmacopoeia 2005, Appendix XIX J); format: physicochemical
# [3] = Stability test (Chinese Pharmacopoeia 2010, Appendix XIX C), total impurities by HPLC; format: physicochemical; conditions: for Total impurities: citrate salt
# Experimental: Stability was examined for 10 days under the conditions of 40° C., 60° C., 75% relative humidity (25° C.), 92.5% relative humidity (25° C.), or light illumination (5000 lx±500 lx), respectively. Samples were taken on day 0 and day 10, and the total impurities thereof were assayed by HPLC.
# Column: Waters XBridge C18 (5 μm, 4.6×150 mm)
# Mobile phase A: 0.01 M aqueous ammonium formate, to which 0.1% formic acid was added, and triethylamine was also added to adjust the pH to 7.4
# Mobile phase B: acetonitrile
# Linear gradient elution, with the following procedure: […]
# Detection wavelength: diode array detector (280 nm)
# Column temperature: 40° C.
# Solvent: acetonitrile-water (1:1)
# Preparation of the test solution: the solution was taken and accurately weighed, dissolved in a solvent and diluted to a solution at 1 mg per 1 mL, as the test solution.
# [4] = 10 days at 40° C., 60° C., 75% RH, 92.5% RH or light
compound,measurement,setting,value
"COc1cc(N2CCNC[C@@H]2C)ncc1-c1cnc(N)c(O[C@H](C)c2c(Cl)ccc(F)c2Cl)c1 [Example 1, 5-((R)-1-(2,6-dichloro-3-fluorophenyl)ethoxy)-4′-methoxy-6′-((S)-2-methylpiperazin-1-yl)-3,3′-bipyridin-6-amine]",Cmax,[1],50 ± 20.8 ng/mL
same,AUC(0-t),[1],502 ± 176 ng·h/mL
same,AUC(0-inf),[1],517 ± 181 ng·h/mL
same,Tmax,[1],3.17 ± 1.6 h
same,t1/2z,[1],6.71 ± 2.55 h
"COc1cc(N2CCNC[C@@H]2C)ncc1-c1cnc(N)c(O[C@H](C)c2c(Cl)ccc(F)c2Cl)c1.O=C(O)CC(O)(CC(=O)O)C(=O)O [Example 8, 5-((R)-1-(2,6-dichloro-3-fluorophenyl)ethoxy)-4′-methoxy-6′-((S)-2-methylpiperazin-1-yl)-3,3′-bipyridin-6-amine citrate salt]",Hygroscopic weight gain compared to the compound of Formula I and the other salts thereof (in words),[2],obviously lower
same,Total impurities,"[3]; 40° C., 10 days, listed as crystal form B of citrate salt of the compound of Formula I",0.96%
same,Total impurities,"[3]; 60° C., 10 days, listed as crystal form B of citrate salt of the compound of Formula I",1.19%
same,Total impurities,"[3]; Initial state, 0 day, listed as crystal form B of citrate salt of the compound of Formula I",0.89%
same,Total impurities,"[3]; Light illumination (5000 lx±500 lx), 10 days, listed as crystal form B of citrate salt of the compound of Formula I",0.99%
same,Total impurities,"[3]; Relative humidity 75%, 25° C., 10 days, listed as crystal form B of citrate salt of the compound of Formula I",0.94%
same,Total impurities,"[3]; Relative humidity 92.5%, 25° C., 10 days, listed as crystal form B of citrate salt of the compound of Formula I",0.95%
"COc1cc(N2CCNC[C@@H]2C)ncc1-c1cnc(N)c(O[C@H](C)c2c(Cl)ccc(F)c2Cl)c1.O=C(O)CC(O)(CC(=O)O)C(=O)O [Example 2, 5-((R)-1-(2,6-dichloro-3-fluorophenyl)ethoxy)-4′-methoxy-6′-((S)-2-methylpiperazin-1-yl)-3,3′-bipyridin-6-amine citrate salt]",Degree and rate of absorption compared to the compound of Formula I (in words),[1],better degree and rate of absorption
same,bioavailability,"[1]; from AUC(0-t), read-out: Relative bioavailability F1",114 ± 68.3%
same,bioavailability,"[1]; from AUC(0-∞), read-out: Relative bioavailability F2",113 ± 68.3%
same,Cmax,[1],63 ± 29.2 ng/mL
same,AUC(0-t),[1],570 ± 343 ng·h/mL
same,AUC(0-inf),[1],586 ± 353 ng·h/mL
same,Tmax,[1],2.33 ± 1.03 h
same,t1/2z,[1],5.94 ± 1.59 h
same,Hygroscopic weight gain compared to the compound of Formula I and the other salts thereof (in words),[2],obviously lower
same,Total impurities,"[3]; 40° C., 10 days, listed as crystal form A of citrate salt of the compound of Formula I",0.77%
same,Total impurities,"[3]; 60° C., 10 days, listed as crystal form A of citrate salt of the compound of Formula I",0.89%
same,Stability (in words),[3]; [4],good stability
same,Stability compared between crystal forms (in words),[3]; [4],better than that of crystal form B
same,Total impurities,"[3]; Initial state, 0 day, listed as crystal form A of citrate salt of the compound of Formula I",0.76%
same,Total impurities,"[3]; Light illumination (5000 lx±500 lx), 10 days, listed as crystal form A of citrate salt of the compound of Formula I",0.78%
same,Total impurities,"[3]; Relative humidity 75%, 25° C., 10 days, listed as crystal form A of citrate salt of the compound of Formula I",0.79%
same,Total impurities,"[3]; Relative humidity 92.5%, 25° C., 10 days, listed as crystal form A of citrate salt of the compound of Formula I",0.77%
"COc1cc(N2CCNC[C@@H]2C)ncc1-c1cnc(N)c(O[C@H](C)c2c(Cl)ccc(F)c2Cl)c1.O=C(O)CC(O)(CC(=O)O)C(=O)O [Example 12, 5-((R)-1-(2,6-dichloro-3-fluorophenyl)ethoxy)-4′-methoxy-6′-((S)-2-methylpiperazin-1-yl)-3,3′-bipyridin-6-amine citrate salt]",Hygroscopic weight gain compared to the compound of Formula I and the other salts thereof (in words),[2],obviously lower
